Assay results taken from patent publication US20140051815A1, “ORGANIC SULFONIC ACID COMPOUND, DOPANT HAVING SAME, AND CONDUCTIVE POLYMER COMPLEX HAVING THE DOPANT” (Ajou University Industry-Academic Cooperation Foundation, priority 2011, published 2014).

Tests used:
[1] = Solubility in various solvents; assay type: physicochemical; set-up: key: +++: dissolved well; ++: almost dissolved, but not completely dissolved and somewhat precipitated; +: opaquely dispersed; −: not dissolved but precipitated
Description: Solubility properties of polyaniline ES in various organic solvents using the dopants of Examples were compared and checked in the same experimental conditions. […] After a basket mixing process, transmittances were measured and an average particle size was measured by using a particle size analyzer, and measurement results are as shown in Table 5.

[2] = Acidity / pH of doping solution, titration with 0.1 N KOH; assay type: physicochemical
From the text: In order to confirm a doping function of the dopants of Examples, pH of a doping solution was checked by using a 0.1 N KOH solution. […] Therefore, a function as a dopant could be confirmed.

| SMILES | Solubility in BuO—EtOH [1] | Solubility in CHCl3 [1] | Solubility in H2O [1] | Solubility in MEK [1] | Solubility in MeOH [1] | Solubility in NMP [1] | Solubility in isopropyl alcohol [1] | Solubility in m-cresol [1] | Solubility in toluene [1] | Titration (Acidity) 0.1N KOH; converted into sulfonic acid [2] [%] |
| --- | --- | --- | --- | --- | --- | --- | --- | --- | --- | --- |
| O=S(=O)(O)CCCOc1ccc(-c2ccccc2)cc1 [Dopant IV] | + | − | +++ | + | +++ | +++ | + | +++ | − |  |
| O=S(=O)(O)CCCOc1ccc(O)cc1 [Dopant II] | +++ | − | +++ | + | +++ | +++ | ++ | ++ | − | 85 |
| O=S(=O)(O)CCCOc1ccc(OCc2ccccc2)cc1 [Dopant V] | +++ | − | +++ | ++ | +++ | +++ | ++ | ++ | − |  |
| Cc1cc(OCCCS(=O)(=O)O)ccc1O [Dopant VI] | +++ | − | +++ | + | +++ | +++ | +++ | ++ | − |  |
| Cc1cccc(OCCCS(=O)(=O)O)c1 [Dopant I] | ++ | − | +++ | + | +++ | ++ | +++ | ++ | − | 86 |
